# Reference: patent US20150031693A1, “PAK INHIBITORS FOR THE TREATMENT OF FRAGILE X SYNDROME” (AFRAXIS HOLDINGS, INC., priority 2011, published 2015)
# Experiments:
# PAK1 [1] = biological target: T1, PAK1 (Homo sapiens, UniProt Q13153); experiment: Additional in vitro PAK inhibition assay, PAK1; assay type: biochemical
# Description: (§1) Additional In Vitro PAK Inhibition Assay
# (§2) Similar in vitro PAK1 and PAK4 inhibition assay was conducted in compounds for the treatment of Fragile X syndrome, but under ATP concentrations of 10 uM and 1 mM.
# PAK4 [2] = biological target: T2, PAK4 (Homo sapiens, UniProt O96013); experiment: Additional in vitro PAK inhibition assay, PAK4; assay type: biochemical; conditions: 10 μM ATP
# Description: as §1, §2
# p-MEK1(S298) = experiment: In vitro cellular HTRF assay for p-MEK1(S298); assay type: cell-based; conditions: cell line RT4-D6P2T, read-out: pMEK1(S298)
# From the text: (§3) In Vitro p-PAK1(S144) and p-MEK1(S298) Cellular Assay
# (§4) The cell line is RT4-D6P2T.
# p-PAK1(S144) = experiment: In vitro cellular HTRF assay for p-PAK1(S144); assay type: cell-based; conditions: cell line RT4-D6P2T, read-out: pPAK1(S144)
# From the text: as §3, §4
# PAK1 [3] = biological target: T1, PAK1; experiment: In vitro PAK inhibition assay (Z'-LYTE), PAK1; assay type: biochemical
# Description: (§5) In Vitro PAK Inhibition Assay
# (§6) Compounds are screened in 1% DMSO (final) in the well. For 10 point titrations, 3-fold serial dilutions are conducted. All Peptide/Kinase Mixtures are diluted to a 2× working concentration in the appropriate Kinase Buffer
# (§7) The 2× PAK1/Ser/Thr 19 mixture is prepared in 50 mM HEPES pH 7.5, 0.01% BRIJ-35, 10 mM MgCl2, 1 mM EGTA. The final 10 μL Kinase Reaction consists of 2.71-30.8 ng PAK1 and 2 μM Ser/Thr 19 in 50 mM HEPES pH 7.5, 0.01% BRIJ-35, 10 mM MgCl2, 1 mM EGTA. After the 1 hour Kinase Reaction incubation, 5 μL of a 1:128 dilution of Development Reagent A is added.
# (§8) Bar-coded Corning, low volume NBS, black 384-well plate (Corning Cat. #3676) • 1. Add the following solutions to a well in a 384-well plate: 2.5 μL of 4× Test Compound OR (100 nL 100× Test Compound plus 2.4 μL kinase buffer) • 5 μL of 2× Peptide/Kinase (PAK) Mixture • 2.5 μL of 4× ATP Solution • 2. Shake the plate for 30-seconds • 3. Incubate the PAK Kinase Reaction at room temperature for 60-minutes • 4. Add 5 μL of Development Reagent Solution to each well • 5. Shake the plate for 30-seconds • 6. Incubate the Development Reaction for 60-minutes • 7. Determine the fluorescence using a fluorescence plate reader • 8. Analyze the fluorescence data
# (§9) SelectScreen® Kinase Profiling Service uses XLfit from IDBS. The dose response curve is curve fit to model number 205 (sigmoidal dose-response model).
# (§10) The table below provides specifications and data around each kinase. The representative IC50 value with a known inhibitor for each kinase was determined at the ATP bin nearest to the ATP Km app.
# PAK2 (PAK65) = PAK2 (PAK65) (Homo sapiens, UniProt Q13177); experiment: In vitro PAK inhibition assay (Z'-LYTE), PAK2; assay type: biochemical
# Description: as §5, §6
# as §7, with “PAK2 (PAK65)/Ser/Thr 20” for “PAK1/Ser/Thr 19”, “0.29-6” for “2.71-30.8”, “PAK2 (PAK65)” for “PAK1”, “20” for “19”, “1:256” for “1:128”
# as §8, §9, §10
# PAK3 = PAK3 (Homo sapiens, UniProt O75914); experiment: In vitro PAK inhibition assay (Z'-LYTE), PAK3; assay type: biochemical
# Description: as §5, §6
# as §7, with “PAK3/Ser/Thr 20” for “PAK1/Ser/Thr 19”, “2.25-22” for “2.71-30.8”, “PAK3” for “PAK1”, “20” for “19”, “1:256” for “1:128”
# as §8, §9, §10
# PAK4 [4] = biological target: T2, PAK4; experiment: In vitro PAK inhibition assay (Z'-LYTE), PAK4; assay type: biochemical
# Description: as §5, §6
# as §7, with “PAK4/Ser/Thr 20” for “PAK1/Ser/Thr 19”, “0.1-0.75” for “2.71-30.8”, “PAK4” for “PAK1”, “20” for “19”, “1:256” for “1:128”
# as §8, §9, §10
# T2 sequence (O96013 whole entry): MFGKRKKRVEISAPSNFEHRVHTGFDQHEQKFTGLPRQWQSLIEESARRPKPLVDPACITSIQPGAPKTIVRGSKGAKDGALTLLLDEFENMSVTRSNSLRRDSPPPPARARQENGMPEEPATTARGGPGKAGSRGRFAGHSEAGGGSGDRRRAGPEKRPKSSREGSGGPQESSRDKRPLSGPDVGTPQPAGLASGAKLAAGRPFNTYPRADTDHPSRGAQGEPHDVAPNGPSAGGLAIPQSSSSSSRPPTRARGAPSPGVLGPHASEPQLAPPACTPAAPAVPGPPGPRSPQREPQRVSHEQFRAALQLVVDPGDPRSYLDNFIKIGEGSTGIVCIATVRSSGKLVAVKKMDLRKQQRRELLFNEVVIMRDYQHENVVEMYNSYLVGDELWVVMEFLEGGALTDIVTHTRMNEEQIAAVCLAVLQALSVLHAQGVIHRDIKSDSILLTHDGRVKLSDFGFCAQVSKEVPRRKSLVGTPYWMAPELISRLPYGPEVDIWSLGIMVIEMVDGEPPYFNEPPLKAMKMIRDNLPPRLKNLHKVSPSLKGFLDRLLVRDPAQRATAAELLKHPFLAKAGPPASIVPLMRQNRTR
# Chain of PAK2 (PAK65) (Q13177 whole entry): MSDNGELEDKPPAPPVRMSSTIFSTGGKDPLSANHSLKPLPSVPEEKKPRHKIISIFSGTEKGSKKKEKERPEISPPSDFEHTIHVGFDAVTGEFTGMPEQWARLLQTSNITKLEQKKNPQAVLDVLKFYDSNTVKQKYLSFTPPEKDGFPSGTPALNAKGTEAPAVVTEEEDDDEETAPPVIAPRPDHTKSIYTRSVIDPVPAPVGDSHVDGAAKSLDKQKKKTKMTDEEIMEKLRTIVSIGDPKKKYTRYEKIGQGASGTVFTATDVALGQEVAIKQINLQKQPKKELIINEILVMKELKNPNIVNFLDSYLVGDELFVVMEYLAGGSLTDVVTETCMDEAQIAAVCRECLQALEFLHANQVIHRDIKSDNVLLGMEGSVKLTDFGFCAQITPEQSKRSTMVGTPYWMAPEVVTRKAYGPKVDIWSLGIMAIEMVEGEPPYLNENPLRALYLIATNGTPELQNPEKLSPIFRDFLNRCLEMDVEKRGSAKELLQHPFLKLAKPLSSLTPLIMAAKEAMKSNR
# Chain of PAK3 (O75914 whole entry): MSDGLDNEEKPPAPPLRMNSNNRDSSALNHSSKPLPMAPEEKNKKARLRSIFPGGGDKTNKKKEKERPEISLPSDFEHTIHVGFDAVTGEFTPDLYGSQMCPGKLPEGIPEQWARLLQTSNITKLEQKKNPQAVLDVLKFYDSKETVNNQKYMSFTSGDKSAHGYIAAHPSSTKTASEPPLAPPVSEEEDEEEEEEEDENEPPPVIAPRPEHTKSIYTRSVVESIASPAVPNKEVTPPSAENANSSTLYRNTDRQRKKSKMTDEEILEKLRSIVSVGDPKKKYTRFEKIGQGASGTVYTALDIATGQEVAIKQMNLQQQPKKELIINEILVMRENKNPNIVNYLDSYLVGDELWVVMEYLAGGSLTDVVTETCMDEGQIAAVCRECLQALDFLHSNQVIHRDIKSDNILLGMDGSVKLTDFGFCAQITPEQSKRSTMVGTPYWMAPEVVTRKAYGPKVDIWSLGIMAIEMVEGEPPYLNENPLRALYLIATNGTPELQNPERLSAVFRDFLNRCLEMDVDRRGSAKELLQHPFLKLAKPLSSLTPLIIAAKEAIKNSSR
# T1 sequence (Q13153 whole entry): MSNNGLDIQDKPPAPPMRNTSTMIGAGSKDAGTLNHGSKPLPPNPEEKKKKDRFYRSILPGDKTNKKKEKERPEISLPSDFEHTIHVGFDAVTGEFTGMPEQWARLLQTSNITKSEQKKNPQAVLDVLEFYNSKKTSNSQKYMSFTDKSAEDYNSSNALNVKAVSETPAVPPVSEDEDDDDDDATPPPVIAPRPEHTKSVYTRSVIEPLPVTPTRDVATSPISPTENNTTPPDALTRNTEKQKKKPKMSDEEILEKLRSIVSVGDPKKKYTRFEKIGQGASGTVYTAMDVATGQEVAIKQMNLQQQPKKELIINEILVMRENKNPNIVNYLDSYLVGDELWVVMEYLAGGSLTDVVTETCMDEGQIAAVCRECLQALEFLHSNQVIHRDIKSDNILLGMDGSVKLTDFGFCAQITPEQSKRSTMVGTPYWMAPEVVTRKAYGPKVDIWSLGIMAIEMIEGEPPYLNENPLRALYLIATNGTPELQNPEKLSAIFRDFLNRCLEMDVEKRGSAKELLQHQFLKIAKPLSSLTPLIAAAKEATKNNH
"IC50 (PAK1 [1]; 10 μM ATP, read-out: PAK1 IC50 (10 μM ATP)) [nM]","IC50 (PAK1 [1]; 1 mM ATP, read-out: PAK1 IC50 (1 mM ATP)) [nM]",IC50 (PAK4 [2]) [nM],IC50 (p-MEK1(S298)) [nM],IC50 (p-PAK1(S144)) [nM],IC50 (PAK1 [3]) [nM],IC50 (PAK2 (PAK65)) [nM],IC50 (PAK3) [nM],IC50 (PAK4 [4]) [nM],SMILES
50 to 500,> 5000,> 5000,,,,,,,CCn1c(=O)c(-c2ccc(-c3noc(C)n3)cc2Cl)cc2cnc(N[C@@H]3COC[C@@H]3N3CCN(C)CC3)nc21
,,,500 to 5000,500 to 5000,,,,,CCn1c(=O)c(-c2ccc(-c3cncc(C)n3)cc2Cl)cc2cnc(N[C@H]3CC[C@H](CN(C)C)CC3)nc21
,,,,,50 to 500,50 to 500,50 to 500,> 5000,"CCn1c(=O)c(-c2ccc(-c3cncc(C)n3)cc2Cl)cc2cnc(NCCCO)nc21 [Example 1, 6-(2-chloro-4-(6-methylpyrazin-2-yl)phenyl)-8-ethyl-2-((3-hydroxypropyl)amino)pyrido[2,3-d]pyrimidin-7(8H)-one]"
,,,,,50 to 500,50 to 500,50 to 500,> 5000,Cc1cncc(-c2ccc(-c3cc4cnc(NC(CCO)CCO)nc4n(Cc4ccccc4C(F)(F)F)c3=O)c(Cl)c2)n1 [Example 2]
,,,,,50 to 500,50 to 500,50 to 500,> 5000,CCn1c(=O)c(-c2ccc(-c3nccnc3C)cc2Cl)cc2cnc(NCCCO)nc21 [Example 3]
,,,,,500 to 5000,50 to 500,500 to 5000,> 5000,CCn1c(=O)c(-c2ccc(-c3cncc(C)n3)cc2Cl)cc2cnc(NC(CCO)CCO)nc21 [Example 4]
,,,,,500 to 5000,500 to 5000,500 to 5000,> 5000,CCn1c(=O)c(-c2ccc(-c3nccnc3C)cc2Cl)cc2cnc(NC(CCO)CCO)nc21 [Example 5]
,,,,,50 to 500,50 to 500,50 to 500,> 5000,CCn1c(=O)c(-c2ccc(-c3nccnc3C)cc2Cl)cc2cnc(NCCO)nc21 [Example 6]
,,,,,50 to 500,50 to 500,50 to 500,> 5000,CCn1c(=O)c(-c2ccc(-c3cncc(C)n3)cc2Cl)cc2cnc(NCCO)nc21 [Example 7]
,,,,,50 to 500,50 to 500,500 to 5000,> 5000,CCn1c(=O)c(-c2ccc(-c3nccnc3C)cc2Cl)cc2cnc(NCCOC)nc21 [Example 8]
,,,,,50 to 500,50 to 500,500 to 5000,> 5000,CCn1c(=O)c(-c2ccc(-c3nccnc3C)cc2Cl)cc2cnc(NCCCOC)nc21 [Example 9]
,,,,,50 to 500,50 to 500,50 to 500,> 5000,CCn1c(=O)c(-c2ccc(-c3cncc(C)n3)cc2Cl)cc2cnc(NCCCOC)nc21 [Example 10]
,,,,,50 to 500,50 to 500,500 to 5000,> 5000,CCn1c(=O)c(-c2ccc(-c3cncc(C)n3)cc2Cl)cc2cnc(NCCOC)nc21 [Example 11]
